Results on 2 compounds are retold here after ChEMBL document CHEMBL3259571, “Diacylglycerol lactones targeting the structural features that distinguish the atypical C1 domains of protein kinase C ζ and ι from typical C1 domains” (J Med Chem, 2014).

The Ki is the dissociation constant of the complex between target and ligand, obtained from inhibition or displacement. In general, Kd refers to a measure of binding affinity in units of concentration.

The species named for assay [1] is Mus musculus. The assay is described as follows: Selectivity ratio of Ki for GST-tagged mouse PKC-delta C1B domain S10R mutant to Kd for GST-tagged full-length mouse PKC-delta C1B domain.
Assay [2] can be described thus: Displacement of [20-3H]PDBu from GST-tagged mouse PKC-delta C1B domain L20R mutant expressed in Escherichia coli after 2 to 30 mins by polyethylene glycol precipitation assay in presence of phosphatidylserine.
The nature of assay [3]: Displacement of [20-3H]PDBu from GST-tagged mouse PKC-delta C1B domain P11R mutant expressed in Escherichia coli after 2 to 30 mins by polyethylene glycol precipitation assay in presence of phosphatidylserine.
The species named for assay [4] is Mus musculus. The assay is described as follows: Selectivity ratio of Kd for GST-tagged full-length mouse PKC-delta C1B domain to Ki for GST-tagged mouse PKC-delta C1B domain P11R mutant.
A short description of assay [5]: Displacement of [20-3H]PDBu from GST-tagged mouse PKC-delta C1B domain N7R mutant expressed in Escherichia coli after 2 to 30 mins by polyethylene glycol precipitation assay in presence of phosphatidylserine.
Assay [6] is filed under the species Mus musculus. The assay is described as follows: Selectivity ratio of Ki for GST-tagged mouse PKC-delta C1B domain L20R mutant to Kd for GST-tagged full-length mouse PKC-delta C1B domain.
Assay [7] is filed under the species Mus musculus. The assay is described as follows: Selectivity ratio of Ki for GST-tagged mouse PKC-delta C1B domain P11R mutant to Kd for GST-tagged full-length mouse PKC-delta C1B domain.
A short description of assay [8]: Displacement of [20-3H]PDBu from GST-tagged mouse PKC-delta C1B domain S10R mutant expressed in Escherichia coli after 2 to 30 mins by polyethylene glycol precipitation assay in presence of phosphatidylserine.
The species named for assay [9] is Mus musculus. The assay is described as follows: Selectivity ratio of Ki for GST-tagged mouse PKC-delta C1B domain N7R mutant to Kd for GST-tagged full-length mouse PKC-delta C1B domain.
For assay [10], the target named is Protein kinase C delta type (Mus musculus, UniProt P28867). The assay is described as follows: Displacement of [20-3H]PDBu from GST-tagged full-length mouse PKC-delta C1B domain expressed in Escherichia coli after 2 to 30 mins by polyethylene glycol precipitation assay in presence of phosphatidylserine.
Chain of Protein kinase C delta type (P28867 whole entry, the tested form may be a part): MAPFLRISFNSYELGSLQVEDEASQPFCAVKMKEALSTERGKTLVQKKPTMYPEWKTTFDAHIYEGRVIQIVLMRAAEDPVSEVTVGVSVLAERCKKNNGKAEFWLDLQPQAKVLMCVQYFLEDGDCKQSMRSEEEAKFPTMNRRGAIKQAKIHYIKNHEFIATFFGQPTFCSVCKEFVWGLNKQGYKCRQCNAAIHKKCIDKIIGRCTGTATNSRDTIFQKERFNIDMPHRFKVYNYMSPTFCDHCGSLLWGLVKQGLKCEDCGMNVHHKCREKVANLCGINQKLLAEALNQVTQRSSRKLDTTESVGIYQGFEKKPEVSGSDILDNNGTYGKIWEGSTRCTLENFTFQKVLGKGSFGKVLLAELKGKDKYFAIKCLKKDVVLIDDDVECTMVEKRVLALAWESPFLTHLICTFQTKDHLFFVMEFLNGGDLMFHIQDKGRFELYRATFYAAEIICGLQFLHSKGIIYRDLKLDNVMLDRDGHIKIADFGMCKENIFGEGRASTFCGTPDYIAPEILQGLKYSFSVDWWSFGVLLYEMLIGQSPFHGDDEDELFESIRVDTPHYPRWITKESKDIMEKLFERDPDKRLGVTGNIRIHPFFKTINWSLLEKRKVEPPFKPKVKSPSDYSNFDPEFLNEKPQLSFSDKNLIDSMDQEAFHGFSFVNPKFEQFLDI
Assay [11] is described as follows: Displacement of [20-3H]PDBu from GST-tagged mouse PKC-delta C1B domain N7R/P11R mutant expressed in Escherichia coli after 2 to 30 mins by polyethylene glycol precipitation assay in presence of phosphatidylserine.
The species named for assay [12] is Mus musculus. The assay is described as follows: Selectivity ratio of Ki for GST-tagged mouse PKC-delta C1B domain N7R/L20R mutant to Kd for GST-tagged full-length mouse PKC-delta C1B domain.
The species entered for assay [13] is Mus musculus. The assay is described as follows: Selectivity ratio of Ki for GST-tagged mouse PKC-delta C1B domain N7R/P11R mutant to Kd for GST-tagged full-length mouse PKC-delta C1B domain.
Assay [14] is described as follows: Displacement of [20-3H]PDBu from GST-tagged mouse PKC-delta C1B domain N7R/L20R mutant expressed in Escherichia coli after 2 to 30 mins by polyethylene glycol precipitation assay in presence of phosphatidylserine.

For `CC(C)CC(CC(=O)OCC1(CO)C/C(=C\c2cccc(C(=O)O)c2)C(=O)O1)CC(C)C` (centres undefined), the Selectivity ratio in [1] worked out at 1.56; in [4] it was 3; in assay [6], 5.33; in assay [7] it was 0.33; in assay [9] it was 0.94. Also, the inhibition constant (Ki) in assay [2] worked out at 1600 nM; in assay [3], 100 nM; in [5], 281 nM; in assay [8], 468 nM. Also, the Kd in assay [10] was 300 nM.

Take `CC(C)C(CC(=O)OCC1(CO)C/C(=C\c2cccc(C(=O)O)c2)C(=O)O1)C(C)C` (centres undefined): the Selectivity ratio in [1] is 0.4; in [4] it was 5; in assay [12], 21.8; in assay [13] it was 2.47; in assay [6], 1.34; in [7], 0.2. Also, the Selectivity ratio in assay [9] worked out at 0.3. In addition, the Ki in assay [2] was 2820 nM; in assay [3] it was 421 nM; in [5], 640 nM; in assay [11] it was 5.19 µM; in assay [8] it was 840 nM; in assay [14] it was 45.9 µM. For the same compound, in [10], the Kd was 2100 nM.
